Values of other authors in patent US8221746B2, “Antioxidant for use in cosmetic, medicated and pharmaceutical preparations” (priority 2008, dated 2012).

Tests used:
photoaging of the face = details: topical, 12 weeks, vs placebo gel
[1] = system: photodamage of facial skin; details: topical, 3 months

Compound: O=C1O[C@H]([C@@H](O)CO)C(O)=C1O [vitamin C]
- clinical improvement in wrinkling (in words) (photoaging of the face): clinically visible and statistically significant improvement in wrinkling
- patient questionnaire overall improvement greater than control [1]: 84.2%
- photographic assessment improvement greater than the improvement in the control group [1]: 57.9%
- combined score improvement, optical image analysis of skin surface ([1]; compared to placebo-vehicle side of face): 71%
